Experimental data reported in patent US20030032158A1, “Method of modulating the efficiency of translation termination and degradation of aberrant mRNA involving a surveillance complex comprising human Upf1p,eucaryotic release factor 1 and eucaryotic release factor 3” (University of Medicine and Dentistry of New Jersey, priority 1998, published 2003).
Entries after “also recorded” stand apart in the source; their conditions may differ.

Key:
Upf1p-eRF3 interaction = biological target: T1, Upf1p-eRF3 interaction (Saccharomyces cerevisiae, UniProt P30771); assay: GST-eRF3 pull-down of purified FLAG-Upf1p, immunoblot; type: binding, yeast; settings: 1 mM ATP, 1 mM GTP or 100 μg/ml poly(U) RNA
T1 construct: made in house; host or cells: GST-eRF3: E. coli BL21(DE3) pLysS with pGEX2T-SUP35
T1 sequence (P30771 1-971): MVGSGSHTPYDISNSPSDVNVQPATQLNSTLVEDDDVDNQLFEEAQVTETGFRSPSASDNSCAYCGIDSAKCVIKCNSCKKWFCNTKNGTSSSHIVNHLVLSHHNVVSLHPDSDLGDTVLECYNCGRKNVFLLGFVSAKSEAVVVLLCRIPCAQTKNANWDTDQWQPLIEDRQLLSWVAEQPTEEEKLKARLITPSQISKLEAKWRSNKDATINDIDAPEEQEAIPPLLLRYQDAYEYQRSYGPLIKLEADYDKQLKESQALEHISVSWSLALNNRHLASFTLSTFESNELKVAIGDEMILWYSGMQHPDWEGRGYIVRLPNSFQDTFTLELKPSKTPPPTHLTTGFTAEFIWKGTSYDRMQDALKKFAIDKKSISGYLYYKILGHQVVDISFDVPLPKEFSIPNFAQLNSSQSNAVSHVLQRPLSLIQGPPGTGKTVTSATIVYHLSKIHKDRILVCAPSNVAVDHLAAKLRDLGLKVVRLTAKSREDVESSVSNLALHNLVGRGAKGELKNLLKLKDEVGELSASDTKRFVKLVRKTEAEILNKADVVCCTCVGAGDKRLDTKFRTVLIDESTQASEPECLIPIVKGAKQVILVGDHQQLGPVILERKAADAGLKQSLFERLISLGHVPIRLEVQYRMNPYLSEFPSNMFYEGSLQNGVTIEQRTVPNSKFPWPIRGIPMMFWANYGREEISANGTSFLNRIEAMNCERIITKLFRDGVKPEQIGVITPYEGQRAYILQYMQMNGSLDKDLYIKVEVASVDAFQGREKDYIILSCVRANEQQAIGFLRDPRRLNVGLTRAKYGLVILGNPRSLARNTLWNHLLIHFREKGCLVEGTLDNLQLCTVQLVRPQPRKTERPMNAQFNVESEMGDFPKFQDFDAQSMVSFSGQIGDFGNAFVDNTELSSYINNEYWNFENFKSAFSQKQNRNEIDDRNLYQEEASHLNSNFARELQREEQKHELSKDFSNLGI
Protocol: FIG. 3. eRF3 and RNA compete for binding to Upf1p. (A) Poly(U) RNA prevents Upf1p from binding to eRF3. Reaction mixtures were prepared as described in FIG. 1B, except that binding was performed in TBSTB (TBST with 100 μg/ml BSA) and reaction mixtures contained 1 mM ATP, 1 mM GTP, or 100 μg/ml poly(U) RNA as indicated above each lane. The reaction mixtures were mixed for 1 hour at 4° C. Following mixing, the complexes were washed as in FIG. 1B with TBSTB containing 1 mM ATP, 1 mM GTP, or 100 μg/ml poly(U) RNA as indicated above each lane. […] Reaction mixtures were prepared as in FIG. 1B, in the presence or absence of […] poly(U) RNA as indicated above each lane. (C) eRF3 inhibits Upf1p RNA binding. A uniformly labeled 32 nt RNA was synthesized by SP6 transcription of SstI digested pGEM5Zf(+). The indicated amounts of GST-eRF3, were incubated with 200 ng Upf1p for 15 minutes at 4° C. 50 fmol of the RNA substrate was added and incubated for 5 minutes. Stop solution was added, and reactions electrophoresed in a 4.5% native PAGE gel (0.5×TBE, 30:0.5 acrylamide:bisacrylamide, with 5% glycerol). […]
Further, purified Flag-Upf1p with poly(U) RNA was incubated in the presence or absence of ATP. […] GST-eRF3 was added to the reaction mixtures and the Upf1-eRF3 interaction was monitored by immunoblotting analysis as before.

[1] = system: isogenic wild-type and upf3Δ strains; assay: Paromomycin sensitivity, zone of growth inhibition around a disc on a lawn of cells; type: cell-based, Saccharomyces cerevisiae
Protocol: FIG. 11. Paromomycin sensitivity was monitored in isogenic wild-type and upf3Δ strains by placing a disc containing 1 mg of paromomycin onto a lawn of cells and determining the zone of growth inhibition around the disc.
Paromomycin sensitivity was monitored in isogenic wild-type and upf3Δ strains by placing a disc containing 1 mg of paromomycin onto a lawn of cells and determining the zone of growth inhibition around the disc (FIG. 11).

[2] = system: −1 ribosomal frameshifting; assay: β-galactosidase assay of −1 ribosomal frameshifting with plasmids pF8 / pTI25; type: cell-based, Saccharomyces cerevisiae
Protocol: Killer assays, frameshifting assays and extraction and analysis of total nucleic acids:The killer assay was carried out as previously described (Dinman, J. D., and Wickner, R. B. (1992)) by replica plating colonies onto 4.7 MB plates newly seeded with a lawn of 5×47 killer indicator cells (0.5 ml of a suspension at 1 unit of optical density at 550 nm per ml per plate). After 2 days at 20° C., killer activity was observed as a zone of growth inhibition around the killer colonies. To quantitate loss of killer activity, colonies that had been identified as killer^+ were re-streaked for single colonies and the percentage of killer^− colonies were determined. The efficiencies of −1 frameshifting were determined as previously described (Cui, Y., Dinman, J. D., and Peltz, S. W. (1996); Dinman, J. D., Ruiz-Echevarria, M. J., Czaplinski, K. and Peltz, S. W. (1997b)) using the 0-frame control (pTI25) and −1 reporter (pF8) plasmids.
Methods to measure efficiencies of programmed ribosomal frameshifting in vivo have been described previously (Cui, Y., Dinman, J. D., and Peltz, S. W. (1996); Dinman, J. D., Icho, T., and Wickner, R. B. (1991); Dinman, J. D., Ruiz-Echevarria, M. J., Czaplinski, K. and Peltz, S. W. (1997b)). […] Similarly, the +1 ribosomal frameshift efficiency is calculated based on the pJD104 to pTI25 β-gal ratios. […]

[3] = system: isogenic wild-type and upf3Δ strains; settings: cells harboring the mof4-1 allele of UPF1; previous results; cited from earlier work

| SMILES | Effect on interaction between Upf1p and eRF3 (Upf1p-eRF3 interaction) | Paromomycin sensitivity (zone of growth inhibition) ([1]; upf1Δ or upf2Δ strains) | Paromomycin sensitivity (zone of growth inhibition) ([1]; upf3Δ strain vs isogenic wild-type, disc containing 1 mg of paromomycin) | β-galactosidase activity (−1 frameshift reporter) ([2]; upf3Δ cells carrying pF8, liquid media, different concentrations of the drug) | β-galactosidase activity ([2]; wild-type cells containing pF8, or any strain carrying pTI25 (zero frame control)) | Paromomycin sensitivity [3] |
| --- | --- | --- | --- | --- | --- | --- |
| Nc1ncnc2c1ncn2[C@@H]1O[C@H](COP(=O)(O)OP(=O)(O)OP(=O)(O)O)[C@@H](O)[C@H]1O [ATP] | did not affect the interaction; also recorded: did not prevent association of Upf1p with eRF3 |  |  |  |  |  |
| Nc1nc2c(ncn2[C@@H]2O[C@H](COP(=O)(O)OP(=O)(O)OP(=O)(O)O)[C@@H](O)[C@H]2O)c(=O)[nH]1 [GTP] | not affected |  |  |  |  |  |
| NC[C@@H]1O[C@H](O[C@H]2[C@@H](O)[C@H](O[C@@H]3[C@@H](O)[C@H](N)C[C@H](N)[C@H]3O[C@H]3O[C@H](CO)[C@@H](O)[C@H](O)[C@H]3N)O[C@@H]2CO)[C@H](N)[C@@H](O)[C@@H]1O [paromomycin] |  | Neither the upf1Δ or upf2Δ strains demonstrate hypersensitivity | more sensitive to paromomycin than the isogenic wild-type strain | increased continuously with increased concentrations of paromomycin | unaffected | increased sensitivity to paromomycin than the isogenic wild-type strain |
